Results reported in patent US20260297060A1, “COMPOUNDS FOR THE DEGRADATION OF MUTANT BRAF” (C4 THERAPEUTICS, INC., priority 2023, published 2026).
Like-named read-outs stand apart in the source and are kept apart here.

Assays:
BRAF V600E = biological target: T1, BRAF V600E (Homo sapiens, UniProt P15056+Q96SW2, V600E); experiment: BRAF V600E HiBiT Degradation Assay; assay type: cell-based; details: A375.10 cells, BRAF V600E
T1 construct: knock-in of the HiBiT tag to the endogenous BRAF V600E locus; host or cells: A375.10 (A375 clonal line, CRISPR HiBiT knock-in at the endogenous BRAF V600E locus)
T1 sequence (P15056 whole entry V600E): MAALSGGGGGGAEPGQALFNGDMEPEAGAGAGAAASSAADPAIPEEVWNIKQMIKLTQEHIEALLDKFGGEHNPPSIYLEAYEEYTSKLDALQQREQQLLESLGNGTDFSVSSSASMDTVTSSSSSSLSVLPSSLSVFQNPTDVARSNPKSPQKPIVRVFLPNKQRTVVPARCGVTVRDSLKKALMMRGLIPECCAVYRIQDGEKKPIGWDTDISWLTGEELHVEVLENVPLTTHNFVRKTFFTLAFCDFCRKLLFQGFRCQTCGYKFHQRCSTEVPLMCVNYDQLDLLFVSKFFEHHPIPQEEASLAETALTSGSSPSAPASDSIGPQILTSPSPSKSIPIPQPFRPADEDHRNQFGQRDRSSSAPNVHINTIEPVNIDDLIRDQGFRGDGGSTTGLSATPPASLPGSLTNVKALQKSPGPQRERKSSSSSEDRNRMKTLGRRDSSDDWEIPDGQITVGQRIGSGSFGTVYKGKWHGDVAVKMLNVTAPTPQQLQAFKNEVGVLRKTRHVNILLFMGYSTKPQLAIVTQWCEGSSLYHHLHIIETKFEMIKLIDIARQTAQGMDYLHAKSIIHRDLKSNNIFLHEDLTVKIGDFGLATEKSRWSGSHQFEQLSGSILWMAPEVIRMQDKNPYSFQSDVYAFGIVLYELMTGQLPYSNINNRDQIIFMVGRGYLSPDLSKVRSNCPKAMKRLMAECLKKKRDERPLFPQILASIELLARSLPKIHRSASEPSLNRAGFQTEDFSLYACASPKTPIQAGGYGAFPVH
T1 sequence (Q96SW2 whole entry): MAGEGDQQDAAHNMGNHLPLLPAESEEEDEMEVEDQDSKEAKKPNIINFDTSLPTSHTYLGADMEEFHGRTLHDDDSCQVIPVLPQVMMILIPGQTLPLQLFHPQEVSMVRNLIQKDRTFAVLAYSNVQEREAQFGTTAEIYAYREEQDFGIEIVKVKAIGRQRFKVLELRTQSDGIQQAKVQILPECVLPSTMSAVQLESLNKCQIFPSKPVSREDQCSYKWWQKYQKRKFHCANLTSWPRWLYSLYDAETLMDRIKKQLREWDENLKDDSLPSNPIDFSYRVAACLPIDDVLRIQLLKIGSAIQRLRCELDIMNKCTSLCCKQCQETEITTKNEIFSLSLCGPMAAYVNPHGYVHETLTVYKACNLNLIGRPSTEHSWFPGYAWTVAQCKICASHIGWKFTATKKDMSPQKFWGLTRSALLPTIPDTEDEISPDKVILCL
T1 sequence (Q16531 whole entry partner): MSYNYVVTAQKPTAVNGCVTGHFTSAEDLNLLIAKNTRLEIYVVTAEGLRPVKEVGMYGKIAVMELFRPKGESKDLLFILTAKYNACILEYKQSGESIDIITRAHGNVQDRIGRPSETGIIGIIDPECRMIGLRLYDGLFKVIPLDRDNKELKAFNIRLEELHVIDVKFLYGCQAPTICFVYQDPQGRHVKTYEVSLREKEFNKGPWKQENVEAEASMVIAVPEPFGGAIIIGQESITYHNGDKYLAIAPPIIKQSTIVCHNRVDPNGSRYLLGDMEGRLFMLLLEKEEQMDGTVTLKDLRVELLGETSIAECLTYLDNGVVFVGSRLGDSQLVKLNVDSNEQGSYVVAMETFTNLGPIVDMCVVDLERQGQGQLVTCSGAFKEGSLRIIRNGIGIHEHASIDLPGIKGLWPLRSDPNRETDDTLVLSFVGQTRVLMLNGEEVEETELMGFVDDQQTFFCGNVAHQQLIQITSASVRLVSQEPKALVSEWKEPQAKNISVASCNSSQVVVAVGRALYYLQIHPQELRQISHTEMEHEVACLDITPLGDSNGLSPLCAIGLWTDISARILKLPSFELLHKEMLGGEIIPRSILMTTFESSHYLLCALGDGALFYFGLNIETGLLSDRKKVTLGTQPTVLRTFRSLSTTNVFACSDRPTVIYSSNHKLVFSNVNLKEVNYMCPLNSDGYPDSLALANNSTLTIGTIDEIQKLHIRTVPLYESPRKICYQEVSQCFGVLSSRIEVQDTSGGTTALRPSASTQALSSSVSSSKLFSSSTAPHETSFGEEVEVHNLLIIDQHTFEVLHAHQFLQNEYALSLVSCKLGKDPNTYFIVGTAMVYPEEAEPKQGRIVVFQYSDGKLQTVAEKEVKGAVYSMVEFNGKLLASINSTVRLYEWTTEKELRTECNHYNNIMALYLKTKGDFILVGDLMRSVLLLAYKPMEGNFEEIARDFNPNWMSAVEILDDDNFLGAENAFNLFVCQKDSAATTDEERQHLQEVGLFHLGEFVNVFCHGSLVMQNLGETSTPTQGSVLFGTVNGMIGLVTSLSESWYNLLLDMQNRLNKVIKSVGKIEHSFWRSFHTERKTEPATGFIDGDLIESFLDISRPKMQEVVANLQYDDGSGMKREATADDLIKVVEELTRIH
How it was run: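 Endogenous HiBiT knock-in on BRAF V600E in A375 cells (clone A375.10); 11-point half-log series, top 10 μM, 2, 6 or 24 h at 37° C. Lytic HiBiT luminescence, background-subtracted, normalized to DMSO; 4-parameter fit gives DC50, Emax (residual protein) and IP (inflection point).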

A375-NRAS^Q61K cells = experiment: CTGlo Cell Viability Assay, A375-NRAS^Q61K (A375.11) cells, 96 hours; assay type: cell-based, human; details: Homo sapiens, 96 h, A375.11 (A375-NRAS^Q61K) cells; for Emax: lowest % viability achieved
How it was run: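 A375 cells carrying BRAF V600E and NRAS Q61K were seeded at 250 cells/well with a 10-point half-log dose series (max 10 μM final). After 96 h at 37 °C, viability was read as ATP luminescence (CellTiter-Glo), background-subtracted and normalized to DMSO (100%). GI50 from 4-parameter fit; Emax is the lowest % viability.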

[1] = 2 hours, inflection point, read-out: HiBiT-Degradation A375.10 BRAF 2 hours IP
[2] = 2 hours, read-out: HiBiT-Degradation A375.10 BRAF 2 hours DC50
[3] = 2 hours, residual protein remaining, read-out: HiBiT-Degradation A375.10 BRAF 2 hours Emax
[4] = HiBiT, 24 hours, read-out: HiBiT-Degradation A375.10 BRAF 24 hours DC50
[5] = HiBiT, 24 hours, read-out: HiBiT-Degradation A375.10 BRAF 24 hours Emax
[6] = HiBiT, 24 hours, read-out: HiBiT-Degradation A375.10 BRAF 24 hours IP
[7] = read-out: HiBiT-Degradation A375.10 BRAF 2 hours DC50, 2 hours
[8] = read-out: HiBiT-Degradation A375.10 BRAF 2 hours IP, 2 hours, inflection point

DC50 (BRAF V600E; [1]) | DC50 (BRAF V600E; [2]) | Emax (BRAF V600E; [3]) | DC50 (BRAF V600E; [4]) | Emax (BRAF V600E; [5]) | DC50 (BRAF V600E; [6]) | GI50 (A375-NRAS^Q61K cells) | DC50 (BRAF V600E; [7]) | DC50 (BRAF V600E; [8]) | SMILES | Emax (A375-NRAS^Q61K cells)
< 1 µM | < 1 µM | 50 to 90% | < 1 µM | < 50% | < 1 µM | 1 to 10 µM |  |  | CCN(C)S(=O)(=O)Nc1ccc(F)c(Oc2ccc3ncn([C@H]4COC5(CCN(CC6CN(c7cc8c(cc7F)c(N7CCC(=O)NC7=O)nn8C)C6)CC5)C4)c(=O)c3c2)c1C#N [Compound 231, (3R)-3-[6-[2-cyano-3-[[ethyl(methyl)sulfamoyl]amino]-6-fluoro-phenoxy]-4-oxo-quinazolin-3-yl]-8-[[1-[3-(2,4-dioxohexahydropyrimidin-1-yl)-5-fluoro-1-methyl-indazol-6-yl]azetidin-3-yl]methyl]-1-oxa-8-azaspiro[4.5]decane] | 50 to 90%
< 1 µM | < 1 µM | < 50% | < 1 µM | < 50% | < 1 µM | < 1 µM |  |  | Cn1nc(N2CCC(=O)NC2=O)c2cc(F)c(N3CC4(CC(N5CCC6(CC5)C[C@@H](n5cnc7ccc(Oc8c(F)ccc(NS(=O)(=O)C9CC9)c8C#N)cc7c5=O)CO6)C4)C3)cc21 [Compound 234, N-[2-cyano-3-[3-[(3R)-8-[2-[3-(2,4-dioxohexahydropyrimidin-1-yl)-5-fluoro-1-methyl-indazol-6-yl]-2-azaspiro[3.3]heptan-6-yl]-1-oxa-8-azaspiro[4.5]decan-3-yl]-4-oxo-quinazolin-6-yl]oxy-4-fluoro-phenyl]cyclopropanesulfonamide] | 50 to 90%
< 1 µM | < 1 µM | < 50% |  |  |  | 1 to 10 µM |  |  | Cn1nc(N2CCC(=O)NC2=O)c2cc(F)c(N3CC4(CC(N5CCC6(CC5)C[C@@H](n5cnc7ccc(Oc8c(F)ccc(NS(=O)(=O)N9C[C@H]%10C[C@H]%10C9)c8C#N)cc7c5=O)CO6)C4)C3)cc21 [Compound 241, (1S,5R)-N-[2-cyano-3-[3-[(3R)-8-[2-[3-(2,4-dioxohexahydropyrimidin-1-yl)-5-fluoro-1-methyl-indazol-6-yl]-2-azaspiro[3.3]heptan-6-yl]-1-oxa-8-azaspiro[4.5]decan-3-yl]-4-oxo-quinazolin-6-yl]oxy-4-fluoro-phenyl]-3-azabicyclo[3.1.0]hexane-3-sulfonamide] | 50 to 90%
< 1 µM | 1 to 10 µM | 50 to 90% |  |  |  | > 10 µM |  |  | Cn1nc(N2CCC(=O)NC2=O)c2cc(F)c(N3CC4(CC(N5CCC6(CC5)C[C@@H](n5cnc7ccc(Oc8c(F)ccc(NS(=O)(=O)N9CCOCC9)c8C#N)cc7c5=O)CO6)C4)C3)cc21 [Compound 242, N-[2-cyano-3-[3-[(3R)-8-[2-[3-(2,4-dioxohexahydropyrimidin-1-yl)-5-fluoro-1-methyl-indazol-6-yl]-2-azaspiro[3.3]heptan-6-yl]-1-oxa-8-azaspiro[4.5]decan-3-yl]-4-oxo-quinazolin-6-yl]oxy-4-fluoro-phenyl]morpholine-4-sulfonamide] | 50 to 90%
 |  | 50 to 90% |  |  |  | < 1 µM | < 1 µM | < 1 µM | Cn1nc(N2CCC(=O)NC2=O)c2cc(F)c(N3CC4(CC(N5CCC6(CC5)C[C@@H](n5cnc7ccc(Oc8c(F)ccc(NS(=O)(=O)N9CCC%10(CC%10)C9)c8C#N)cc7c5=O)CO6)C4)C3)cc21 [Compound 245, N-[2-cyano-3-[3-[(3R)-8-[2-[3-(2,4-dioxohexahydropyrimidin-1-yl)-5-fluoro-1-methyl-indazol-6-yl]-2-azaspiro[3.3]heptan-6-yl]-1-oxa-8-azaspiro[4.5]decan-3-yl]-4-oxo-quinazolin-6-yl]oxy-4-fluoro-phenyl]-5-azaspiro[2.4]heptane-5-sulfonamide] | 50 to 90%
 |  | < 50% |  |  |  | 1 to 10 µM | < 1 µM | < 1 µM | CC(C)S(=O)(=O)Nc1ccc(F)c(Oc2ccc3ncc(C4CC5(CCN(C6CC7(C6)CN(c6cc8c(cc6F)c(N6CCC(=O)NC6=O)nn8C)C7)CC5)C4)nc3c2)c1C#N (stereo not drawn) [Compound 247, N-[2-cyano-3-[3-[7-[2-[3-(2,4-dioxohexahydropyrimidin-1-yl)-5-fluoro-1-methyl-indazol-6-yl]-2-azaspiro[3.3]heptan-6-yl]-7-azaspiro[3.5]nonan-2-yl]quinoxalin-6-yl]oxy-4-fluoro-phenyl]propane-2-sulfonamide] | 50 to 90%
< 1 µM | < 1 µM | 50 to 90% |  |  |  | 1 to 10 µM |  |  | CCN(C)S(=O)(=O)Nc1ccc(F)c(Oc2ccc3ncn([C@H]4COC5(CCN(CC6CCN(c7cc8c(cc7F)c(N7CCC(=O)NC7=O)nn8C)CC6)CC5)C4)c(=O)c3c2)c1C#N [Compound 251, (3R)-3-[6-[2-cyano-3-[[ethyl(methyl)sulfamoyl]amino]-6-fluoro-phenoxy]-4-oxo-quinazolin-3-yl]-8-[[1-[3-(2,4-dioxohexahydropyrimidin-1-yl)-5-fluoro-1-methyl-indazol-6-yl]-4-piperidyl]methyl]-1-oxa-8-azaspiro[4.5]decane] | 50 to 90%
< 1 µM | > 10 µM | 50 to 90% |  |  |  | > 10 µM |  |  | Cn1nc(N2CCC(=O)NC2=O)c2cc(F)c(N3CC4(CC(N5CCC6(CC5)C[C@@H](n5cnc7ccc(Oc8c(F)ccc(NS(=O)(=O)C9CCOCC9)c8C#N)cc7c5=O)CO6)C4)C3)cc21 [Compound 252, N-[2-cyano-3-[3-[(3R)-8-[2-[3-(2,4-dioxohexahydropyrimidin-1-yl)-5-fluoro-1-methyl-indazol-6-yl]-2-azaspiro[3.3]heptan-6-yl]-1-oxa-8-azaspiro[4.5]decan-3-yl]-4-oxo-quinazolin-6-yl]oxy-4-fluoro-phenyl]tetrahydropyran-4-sulfonamide] | 50 to 90%
< 1 µM | > 10 µM | 50 to 90% |  |  |  | 1 to 10 µM |  |  | CCN(C)S(=O)(=O)Nc1ccc(F)c(Oc2ccc3ncn(C4CC5(CCN(C6CCN(c7cc8c(cc7F)c(N7CCC(=O)NC7=O)nn8C)CC6(F)F)CC5)C4)c(=O)c3c2)c1C#N (stereo not drawn) [Compound 253, 6-[2-cyano-3-[[ethyl(methyl)sulfamoyl]amino]-6-fluoro-phenoxy]-3-[7-[1-[3-(2,4-dioxohexahydropyrimidin-1-yl)-5-fluoro-1-methyl-indazol-6-yl]-3,3-difluoro-4-piperidyl]-7-azaspiro[3.5]nonan-2-yl]-4-oxo-quinazoline] | < 50%
< 1 µM | < 1 µM | 50 to 90% |  |  |  | > 10 µM |  |  | CCN(C)S(=O)(=O)Nc1ccc(F)c(Oc2ccc3ncn(C4CC5(CCN(CC6CCN(c7cc8c(cc7F)c(N7CCC(=O)NC7=O)nn8C)CC6)CC5)C4)c(=O)c3c2)c1C#N [Compound 255, 6-[2-cyano-3-[[ethyl(methyl)sulfamoyl]amino]-6-fluoro-phenoxy]-3-[7-[[1-[3-(2,4-dioxohexahydropyrimidin-1-yl)-5-fluoro-1-methyl-indazol-6-yl]-4-piperidyl]methyl]-7-azaspiro[3.5]nonan-2-yl]-4-oxo-quinazoline] | 50 to 90%
< 1 µM | < 1 µM | < 50% |  |  |  | < 1 µM |  |  | CCN(C)S(=O)(=O)Nc1ccc(F)c(Oc2ccc3ncc(C4CC5(CCN(C6CCN(c7cc8c(cc7F)c(N7CCC(=O)NC7=O)nn8C)CC6)CC5)C4)nc3c2)c1C#N [Compound 256, 7-[2-cyano-3-[[ethyl(methyl)sulfamoyl]amino]-6-fluoro-phenoxy]-2-[7-[1-[3-(2,4-dioxohexahydropyrimidin-1-yl)-5-fluoro-1-methyl-indazol-6-yl]-4-piperidyl]-7-azaspiro[3.5]nonan-2-yl]quinoxaline] | 50 to 90%
< 1 µM | 1 to 10 µM | 50 to 90% |  |  |  | > 10 µM |  |  | CCN(C)S(=O)(=O)Nc1ccc(F)c(Oc2ccc3ncn(CC4CCN(C5CC6(C5)CN(c5cc7c(cc5F)c(N5CCC(=O)NC5=O)nn7C)C6)CC4)c(=O)c3c2)c1C#N [Compound 258, 6-[2-cyano-3-[[ethyl(methyl)sulfamoyl]amino]-6-fluoro-phenoxy]-3-[[1-[2-[3-(2,4-dioxohexahydropyrimidin-1-yl)-5-fluoro-1-methyl-indazol-6-yl]-2-azaspiro[3.3]heptan-6-yl]-4-piperidyl]methyl]-4-oxo-quinazoline] | 50 to 90%
